The results in this text go back to PMC10269561, “Absence of Clinically Meaningful Drug-Drug Interactions with Rezafungin: Outcome of Investigations” (Microbiology Spectrum, 2023).

The conditions of the series: for AUC0–t, geometric LSM value, + rezafungin / AUC0–∞, geometric LSM value, + rezafungin / Cmax, geometric LSM value, + rezafungin / AUC0–t, geometric LSM value, alone / AUC0–∞, geometric LSM value, alone / Cmax, geometric LSM value, alone: Study 1, healthy subjects, plasma, LC-MS/MS, NCA; for AUC0–t, geometric LSM value, alone / AUC0–∞, geometric LSM value, alone / Cmax, geometric LSM value, alone: oral repaglinide 1 mg, metformin 500 mg, pitavastatin 2 mg, caffeine 100 mg, midazolam 2 mg or digoxin 0.25 mg without rezafungin; for Change in exposure of the oral probe drug on coadministration of i.v. rezafungin vs dosing alone: 90% CIs of GMRs of Cmax, AUC0–t, AUC0–∞ within 80 to […]; for Observation, Cmax (change with rezafungin relative to drug alone) / Observation, AUC (change with rezafungin relative to drug alone): class symbol; for Observation, AUC (change with rezafungin relative to drug alone): AUC0–t and AUC0–∞ unless otherwise noted; for AUC0–t, geometric mean ratio (drug + rezafungin / drug alone) / AUC0–∞, geometric mean ratio (drug + rezafungin / drug alone) / Cmax, geometric mean ratio (drug + rezafungin / drug alone): geometric LSM ratio x 100, ANOVA. Here is the method:
Both were phase 1, single-center, open-label, crossover inpatient studies that were conducted in the United States in healthy adults (study 1, aged 26 to 55 years; study 2, aged 21 to 59 years). The studies were compliant with the International Council for Harmonisation of Technical Requirements for Pharmaceuticals for Human Use E6 guideline for good clinical practice ([54]) and the Declaration of Helsinki. The study protocols were approved by the institutional review board associated with the study site, and all subjects provided written informed consent.
After screening, subjects were admitted to the clinical research unit (CRU) prior to the first dose of rezafungin (from day −22) and were discharged from the CRU on day 22. Nine oral substrate drugs were administered as part of a cocktail containing two or more drugs once before and once after receiving rezafungin on a schedule designed to allow the washout of the drugs in the cocktail between doses and limit interactions with other drugs (Fig. 4A). […] A loading dose of rezafungin for injection (600 mg) was administered over 1 h on day 1, followed by two once-weekly 400-mg doses over 1 h on days 10 and 15. Due to a short delay in the availability of the investigation study drug, the second once-weekly dose of rezafungin and the second set of oral substrate drugs were administered on day 10 instead of day 8, although the time between doses remained sufficient for all originally planned PK samplings through 96 h postdose and for the adequate washout of the substrate drugs. The total duration of treatment was up to 89 days, including 45 days of screening and 44 days of treatment in the CRU.
In study 1, predose PK blood samples were collected on each dosing day ≤60 min prior to the administration of the substrate drugs with or without rezafungin. Multiple blood samples were collected relative to each dose, with collection times ranging from 15 min to 168 h postdose, depending on the PK profile of each probe substrate drug (Table S5). For study 2, multiple blood samples were collected, and the timing of collection varied according to the PK profile of each coadministered drug from predose to 96 h postdose (Table S6). PK blood samples were collected for rezafungin at sample times ranging from predose to 168 h postdose.
For both studies, validated liquid chromatography-tandem mass spectrometry (LC-MS/MS) methods were used for PK assessments to analyze the concentrations of rezafungin and coadministered drugs. All plasma concentrations and actual blood sampling times were subjected to noncompartmental PK analysis. PK parameter calculations were performed using noncompartmental analysis (NCA) (Phoenix WinNonlin version 8.0 or higher). The PK parameters analyzed included Cmax; the time to reach the maximum observed plasma concentration (Tmax); AUC0–t (using the log-linear trapezoidal rule, where t was the last time point with a measurable concentration); AUC0–∞ (calculated as AUC0–t + Clast/λz); the AUC from 0 to 168 h (AUC0–168); the percentage of AUC0–∞ extrapolated (AUC%Extrap); the terminal elimination rate constant, determined by linear regression of the terminal linear segment of the log concentration-versus-time curve (λz); and the elimination half-life (t1/2), calculated as ln(2)/λz.
The primary analysis of the drug interaction effect on substrate drugs following rezafungin administration was assessed by the ratio of the geometric least-squares (LS) mean of each substrate drug administered with rezafungin to that without rezafungin. […] PK parameters were statistically analyzed using an analysis of variance (ANOVA) model. […] However, noncompliance with these no-effect boundaries was not considered evidence of a significant DDI. Statistical analyses were performed using SAS (version 9.4) and the mixed procedure. Adverse events were descriptively summarized.

Setting [1] is: oral metformin 500 mg, pitavastatin 2 mg (day 10) or caffeine 100 mg, efavirenz 50 mg, midazolam 2 mg, digoxin 0.25 mg (day 15) with i.v. rezafungin 400 mg.
Setting [2] is: Study 1, rezafungin 400 mg i.v. (day 10 or 15).
The mark [3] stands for this setting: oral repaglinide 1 mg with i.v. rezafungin 600 mg (day 1).
[4] abbreviates: Study 1, rezafungin 600 mg i.v.

Read-outs that look alike come from different tables or passages of the source.

On to `Cn1c(=O)c2c(ncn2C)n(C)c1=O` [Caffeine], for which, under setting [1], the “AUC0–t, geometric LSM value, + rezafungin” value is reported as 18,475.36 ng · h/mL; the “AUC0–∞, geometric LSM value, + rezafungin” value is reported as 20,853.11 ng · h/mL; the “Cmax, geometric LSM value, + rezafungin” value is 2,232.88 ng/mL. For the same compound, under “efavirenz 50 mg”, the “AUC0–t, geometric LSM value, alone” value is 17,230.22 ng · h/mL; the “AUC0–∞, geometric LSM value, alone” value is recorded as 18,897.70 ng · h/mL; the “Cmax, geometric LSM value, alone” value is reported as 2,075.44 ng/mL. Under “Study 1”, the “Change in exposure of the oral probe drug on coadministration of i.v. rezafungin vs dosing alone” value (“Change in exposure” for short) is “did not result in statistically significant changes”; the “Observation, Cmax (change with rezafungin relative to drug alone)” value is “↔ (no change (the ratio of the PK parameter value varied by up to ~10%, and the 90% CI was within 80 to 125%))”; the “Observation, AUC (change with rezafungin relative to drug alone)” value was “↔ (no change (the ratio of the PK parameter value varied by up to ~10%, and the 90% CI was within 80 to 125%))”. Further, under setting [2], the “AUC0–t, geometric mean ratio (drug + rezafungin / drug alone)” value was 107.23%; the “AUC0–∞, geometric mean ratio (drug + rezafungin / drug alone)” value was 110.35%; the “Cmax, geometric mean ratio (drug + rezafungin / drug alone)” value came to 107.59%.
In the case of `C[C@H]1O[C@@H](O[C@H]2[C@@H](O)C[C@H](O[C@H]3[C@@H](O)C[C@H](O[C@H]4CC[C@@]5(C)[C@H](CC[C@@H]6[C@@H]5C[C@@H](O)[C@]5(C)[C@@H](C7=CC(=O)OC7)CC[C@]65O)C4)O[C@@H]3C)O[C@@H]2C)C[C@H](O)[C@@H]1O` [Digoxin], the “Change in exposure” value (Study 1) is “did not result in statistically significant changes”.
As to `O=C1Nc2ccc(Cl)cc2[C@@](C#CC2CC2)(C(F)(F)F)O1` [Efavirenz], under setting [1], the “AUC0–t, geometric LSM value, + rezafungin” value is listed as 7,698.46 ng · h/mL; the “AUC0–∞, geometric LSM value, + rezafungin” value was 16,156.14 ng · h/mL; the “Cmax, geometric LSM value, + rezafungin” value amounted to 300.17 ng/mL. Moreover, for the setting “efavirenz 50 mg”, the “AUC0–t, geometric LSM value, alone” value is 7,557.26 ng · h/mL; the “AUC0–∞, geometric LSM value, alone” value is given as 14,368.15 ng · h/mL; the “Cmax, geometric LSM value, alone” value is 299.30 ng/mL. In addition, under “Study 1”, the “Change in exposure” value is given as “did not result in statistically significant changes”; the “Observation, Cmax (change with rezafungin relative to drug alone)” value is “↔ (no change (the ratio of the PK parameter value varied by up to ~10%, and the 90% CI was within 80 to 125%))”; the “Observation, AUC (change with rezafungin relative to drug alone)” value was “↔ (no change (the ratio of the PK parameter value varied by up to ~10%, and the 90% CI was within 80 to 125%))”. Also, under setting [2], the “AUC0–t, geometric mean ratio (drug + rezafungin / drug alone)” value is on record as 101.87%; the “AUC0–∞, geometric mean ratio (drug + rezafungin / drug alone)” value is 112.44%; the “Cmax, geometric mean ratio (drug + rezafungin / drug alone)” value came out at 100.29%.
`CN(C)C(=N)N=C(N)N` [Metformin]: under setting [1], the “AUC0–t, geometric LSM value, + rezafungin” value is 7,257.55 ng · h/mL; the “AUC0–∞, geometric LSM value, + rezafungin” value is given as 7,373.31 ng · h/mL; the “Cmax, geometric LSM value, + rezafungin” value is recorded as 1,115.98 ng/mL. Moreover, for the setting “efavirenz 50 mg”, the “AUC0–t, geometric LSM value, alone” value is reported as 7,333.63 ng · h/mL; the “AUC0–∞, geometric LSM value, alone” value is 7,446.67 ng · h/mL; the “Cmax, geometric LSM value, alone” value is 1,074.27 ng/mL. Where the note is “Study 1”, the “Change in exposure” value is given as “did not result in statistically significant changes”; the “Observation, Cmax (change with rezafungin relative to drug alone)” value is “↔ (no change (the ratio of the PK parameter value varied by up to ~10%, and the 90% CI was within 80 to 125%))”; the “Observation, AUC (change with rezafungin relative to drug alone)” value was “↔ (no change (the ratio of the PK parameter value varied by up to ~10%, and the 90% CI was within 80 to 125%))”. Under setting [2], the “AUC0–t, geometric mean ratio (drug + rezafungin / drug alone)” value stood at 98.96%; the “AUC0–∞, geometric mean ratio (drug + rezafungin / drug alone)” value stood at 99.02%; the “Cmax, geometric mean ratio (drug + rezafungin / drug alone)” value is 103.88%.
`Cc1ncc2n1-c1ccc(Cl)cc1C(c1ccccc1F)=NC2` [Midazolam]: under setting [1], the “AUC0–t, geometric LSM value, + rezafungin” value came to 21.62 ng·h/mL; the “AUC0–∞, geometric LSM value, + rezafungin” value turned out to be 23.67 ng·h/mL; the “Cmax, geometric LSM value, + rezafungin” value was found to be 8.70 ng/mL. Moreover, for the setting “efavirenz 50 mg”, the “AUC0–t, geometric LSM value, alone” value came to 21.39 ng·h/mL; the “AUC0–∞, geometric LSM value, alone” value stood at 23.25 ng·h/mL; the “Cmax, geometric LSM value, alone” value amounted to 9.00 ng/mL. Moreover, for the setting “Study 1”, the “Change in exposure” value is recorded as “did not result in statistically significant changes”; the “Observation, Cmax (change with rezafungin relative to drug alone)” value was “↔ (no change (the ratio of the PK parameter value varied by up to ~10%, and the 90% CI was within 80 to 125%))”; the “Observation, AUC (change with rezafungin relative to drug alone)” value was “↔ (no change (the ratio of the PK parameter value varied by up to ~10%, and the 90% CI was within 80 to 125%))”. Moreover, under setting [2], the “AUC0–t, geometric mean ratio (drug + rezafungin / drug alone)” value was found to be 101.06%; the “AUC0–∞, geometric mean ratio (drug + rezafungin / drug alone)” value stood at 101.78%; the “Cmax, geometric mean ratio (drug + rezafungin / drug alone)” value stood at 96.73%.
Turning to `O=C(O)C[C@H](O)C[C@H](O)/C=C/c1c(C2CC2)nc2ccccc2c1-c1ccc(F)cc1` [Pitavastatin], under setting [1], the “AUC0–t, geometric LSM value, + rezafungin” value was 81.54 ng·h/mL; the “AUC0–∞, geometric LSM value, + rezafungin” value came to 90.87 ng·h/mL; the “Cmax, geometric LSM value, + rezafungin” value worked out at 35.72 ng/mL. In addition, for the setting “efavirenz 50 mg”, the “AUC0–t, geometric LSM value, alone” value worked out at 77.44 ng·h/mL; the “AUC0–∞, geometric LSM value, alone” value was found to be 85.78 ng·h/mL; the “Cmax, geometric LSM value, alone” value is reported as 36.23 ng/mL. Moreover, for the setting “Study 1”, the “Change in exposure” value is given as “did not result in statistically significant changes”; the “Observation, Cmax (change with rezafungin relative to drug alone)” value is “↔ (no change (the ratio of the PK parameter value varied by up to ~10%, and the 90% CI was within 80 to 125%))”; the “Observation, AUC (change with rezafungin relative to drug alone)” value is “↔ (no change (the ratio of the PK parameter value varied by up to ~10%, and the 90% CI was within 80 to 125%))”. Under setting [2], the “AUC0–t, geometric mean ratio (drug + rezafungin / drug alone)” value was 105.30%; the “AUC0–∞, geometric mean ratio (drug + rezafungin / drug alone)” value came to 105.93%; the “Cmax, geometric mean ratio (drug + rezafungin / drug alone)” value was found to be 98.59%.
As for `CCOc1cc(CC(=O)N[C@@H](CC(C)C)c2ccccc2N2CCCCC2)ccc1C(=O)O` [Repaglinide], under setting [3], the “AUC0–t, geometric LSM value, + rezafungin” value stood at 23.47 ng·h/mL; the “AUC0–∞, geometric LSM value, + rezafungin” value amounted to 25.16 ng·h/mL; the “Cmax, geometric LSM value, + rezafungin” value is 12.13 ng/mL. Further, for the setting “efavirenz 50 mg”, the “AUC0–t, geometric LSM value, alone” value is 20.25 ng·h/mL; the “AUC0–∞, geometric LSM value, alone” value turned out to be 21.74 ng·h/mL; the “Cmax, geometric LSM value, alone” value stood at 11.86 ng/mL. Further, under “Study 1”, the “Observation, Cmax (change with rezafungin relative to drug alone)” value was “↔ (no change (the ratio of the PK parameter value varied by up to ~10%, and the 90% CI was within 80 to 125%))”. In addition, the “Magnitude of increase in AUC0–∞ with rezafungin vs drug alone” value (Study 1, from geometric mean ratio) is given as about 16%. Also, under setting [4], the “AUC0–t, geometric mean ratio (drug + rezafungin / drug alone)” value is on record as 115.87%; the “AUC0–∞, geometric mean ratio (drug + rezafungin / drug alone)” value is recorded as 115.75%; the “Cmax, geometric mean ratio (drug + rezafungin / drug alone)” value is 102.26%.
